≈ marks a conversion by molar mass, not a printed value.
Assay: physchem
Format: physicochemical
Details: 25 °C, water
Excerpt: For instance, it has been observed that PQQ can be difficult to dissolve in liquid mixtures. […] In most cases, rather than dissolving, PQQ is initially suspended within a liquid solution, but the PQQ later settles out of this suspension. Once settled, the PQQ generally becomes ineffective and is inaccessible for a plant to uptake. For example, the PQQ quickly settles out of suspension onto the bottom of any storage container which in turn inhibits the spraying or otherwise applying the PQQ onto the plants and/or soil. This inability for PQQ to remain dissolved and/or suspended is exacerbated when out in commercial agricultural fields, because the solution is typically kept in large drums or other large containers that are difficult to agitate or otherwise move so as to maintain the suspension. Moreover, there is currently no commercially practical way to dissolve PQQ in a liquid mixture to mass produce a product useful in agricultural and/or horticultural situations (i.e., growing of ornamental plants).

solubility: ~0.212 mg/mL (≈ 641 µM)
Structure (SMILES): O=C(O)c1cc(C(=O)O)c2c(n1)C(=O)C(=O)c1cc(C(=O)O)[nH]c1-2 [PQQ, 4,5-Dioxo-4,5-dihydro-1H-pyrrolo[2,3-f]quinoline-2,7,9-tricarboxylic acid]

— patent publication US20240215583A1, “PLANT BIOLOGIC INCLUDING PYRROLOQUINOLINE QUINONE (PQQ)” (Dakota Bio LLC, priority 2022, published 2024)
